Test results as given in article PMC10190190 (Journal of Enzyme Inhibition and Medicinal Chemistry, 2023).

What was measured:
Assay type in all cases: biochemical
[1] = target: HDAC4 (Homo sapiens, UniProt P56524); experiment: HDAC activity assay, HDAC4
[2] = target: T1, HDAC7 (Homo sapiens, UniProt Q8WUI4); experiment: HDAC activity assay, HDAC7
T1 sequence (Q8WUI4 1-952): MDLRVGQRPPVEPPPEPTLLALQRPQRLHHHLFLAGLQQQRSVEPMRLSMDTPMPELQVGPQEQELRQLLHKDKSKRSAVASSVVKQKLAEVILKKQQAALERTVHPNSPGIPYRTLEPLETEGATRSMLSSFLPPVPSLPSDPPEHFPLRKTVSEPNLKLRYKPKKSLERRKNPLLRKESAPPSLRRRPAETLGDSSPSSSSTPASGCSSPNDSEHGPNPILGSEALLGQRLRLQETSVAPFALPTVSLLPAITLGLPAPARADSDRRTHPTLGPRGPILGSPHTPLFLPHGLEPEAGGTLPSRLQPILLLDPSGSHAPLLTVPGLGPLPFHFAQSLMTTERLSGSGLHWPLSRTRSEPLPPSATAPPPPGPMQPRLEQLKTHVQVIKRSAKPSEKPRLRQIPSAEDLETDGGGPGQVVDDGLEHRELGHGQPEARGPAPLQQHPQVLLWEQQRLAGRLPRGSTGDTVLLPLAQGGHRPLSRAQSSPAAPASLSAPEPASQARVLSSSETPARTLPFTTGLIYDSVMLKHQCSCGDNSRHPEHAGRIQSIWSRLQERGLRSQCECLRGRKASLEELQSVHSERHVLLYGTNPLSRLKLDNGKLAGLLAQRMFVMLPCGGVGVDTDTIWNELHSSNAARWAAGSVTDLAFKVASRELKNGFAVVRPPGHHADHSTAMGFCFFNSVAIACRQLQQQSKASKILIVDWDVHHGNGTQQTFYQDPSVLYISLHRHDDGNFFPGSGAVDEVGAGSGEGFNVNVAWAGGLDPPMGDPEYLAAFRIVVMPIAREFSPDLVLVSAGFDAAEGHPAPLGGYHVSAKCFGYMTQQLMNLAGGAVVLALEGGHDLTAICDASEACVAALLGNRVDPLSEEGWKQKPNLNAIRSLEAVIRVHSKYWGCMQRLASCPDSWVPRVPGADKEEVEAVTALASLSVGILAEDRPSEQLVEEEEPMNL

[3] = target: HDAC9 (Homo sapiens, UniProt Q9UKV0); experiment: HDAC activity assay, HDAC9
Chain of HDAC9 (Q9UKV0 whole entry): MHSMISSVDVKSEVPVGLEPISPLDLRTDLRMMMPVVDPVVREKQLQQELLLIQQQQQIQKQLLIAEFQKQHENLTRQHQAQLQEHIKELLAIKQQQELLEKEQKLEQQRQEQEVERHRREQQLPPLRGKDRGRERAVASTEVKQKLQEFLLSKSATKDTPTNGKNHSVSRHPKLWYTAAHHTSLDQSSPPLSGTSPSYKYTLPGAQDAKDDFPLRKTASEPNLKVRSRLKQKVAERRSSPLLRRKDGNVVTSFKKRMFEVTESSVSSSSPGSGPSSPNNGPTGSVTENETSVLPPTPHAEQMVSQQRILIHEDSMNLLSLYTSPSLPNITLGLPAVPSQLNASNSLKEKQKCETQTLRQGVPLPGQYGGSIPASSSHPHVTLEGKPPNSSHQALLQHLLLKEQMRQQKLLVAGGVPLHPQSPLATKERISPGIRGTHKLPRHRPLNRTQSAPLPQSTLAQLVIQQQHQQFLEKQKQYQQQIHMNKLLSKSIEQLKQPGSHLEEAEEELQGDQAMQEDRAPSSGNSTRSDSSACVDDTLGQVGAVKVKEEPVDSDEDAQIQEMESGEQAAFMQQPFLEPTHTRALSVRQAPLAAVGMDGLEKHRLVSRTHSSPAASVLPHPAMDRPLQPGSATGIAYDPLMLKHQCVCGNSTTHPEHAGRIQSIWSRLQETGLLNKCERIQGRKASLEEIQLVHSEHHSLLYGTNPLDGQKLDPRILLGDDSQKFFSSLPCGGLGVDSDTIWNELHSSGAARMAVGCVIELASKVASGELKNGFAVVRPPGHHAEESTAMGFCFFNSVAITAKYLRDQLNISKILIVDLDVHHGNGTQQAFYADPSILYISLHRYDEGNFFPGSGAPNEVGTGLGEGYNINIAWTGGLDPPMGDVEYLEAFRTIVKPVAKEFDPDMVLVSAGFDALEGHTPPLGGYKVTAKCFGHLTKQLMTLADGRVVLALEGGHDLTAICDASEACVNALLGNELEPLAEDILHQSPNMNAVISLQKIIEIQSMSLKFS

[4] = target: T2, HDAC6 (Homo sapiens, UniProt Q9UBN7); experiment: HDAC activity assay, HDAC6
T2 sequence (Q9UBN7 1-1215): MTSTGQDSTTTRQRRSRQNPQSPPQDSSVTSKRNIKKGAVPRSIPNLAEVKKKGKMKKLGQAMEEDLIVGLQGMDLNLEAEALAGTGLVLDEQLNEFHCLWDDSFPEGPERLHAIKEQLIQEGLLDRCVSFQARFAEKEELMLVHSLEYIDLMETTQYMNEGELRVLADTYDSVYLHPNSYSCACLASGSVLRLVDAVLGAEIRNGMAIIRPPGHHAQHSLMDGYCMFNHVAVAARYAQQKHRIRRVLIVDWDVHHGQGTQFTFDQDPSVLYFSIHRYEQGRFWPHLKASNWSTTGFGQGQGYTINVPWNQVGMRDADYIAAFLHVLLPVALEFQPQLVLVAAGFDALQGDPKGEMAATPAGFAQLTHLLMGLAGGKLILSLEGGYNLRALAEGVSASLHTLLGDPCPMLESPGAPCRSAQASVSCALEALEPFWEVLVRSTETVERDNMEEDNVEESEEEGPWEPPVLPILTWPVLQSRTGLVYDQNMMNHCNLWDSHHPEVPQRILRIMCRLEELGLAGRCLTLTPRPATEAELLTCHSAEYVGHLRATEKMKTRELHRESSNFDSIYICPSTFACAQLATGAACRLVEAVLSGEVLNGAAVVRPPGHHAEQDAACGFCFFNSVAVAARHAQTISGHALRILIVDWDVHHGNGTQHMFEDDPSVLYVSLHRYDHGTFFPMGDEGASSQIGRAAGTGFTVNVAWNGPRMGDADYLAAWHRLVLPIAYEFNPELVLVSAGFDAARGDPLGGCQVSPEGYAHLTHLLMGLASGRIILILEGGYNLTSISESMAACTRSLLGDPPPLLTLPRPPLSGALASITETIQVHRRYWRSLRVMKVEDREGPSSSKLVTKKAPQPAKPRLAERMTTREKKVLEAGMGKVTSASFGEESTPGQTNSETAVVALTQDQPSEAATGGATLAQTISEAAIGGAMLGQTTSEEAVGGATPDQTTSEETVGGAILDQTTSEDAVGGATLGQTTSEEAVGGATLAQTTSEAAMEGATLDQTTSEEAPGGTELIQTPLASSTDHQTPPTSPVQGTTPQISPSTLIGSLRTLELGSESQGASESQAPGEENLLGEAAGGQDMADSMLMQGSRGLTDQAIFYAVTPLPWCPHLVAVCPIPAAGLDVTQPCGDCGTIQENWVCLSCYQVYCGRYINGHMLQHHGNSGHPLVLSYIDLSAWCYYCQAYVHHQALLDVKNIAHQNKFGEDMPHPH

Chain of HDAC4 (P56524 whole entry, species assumed): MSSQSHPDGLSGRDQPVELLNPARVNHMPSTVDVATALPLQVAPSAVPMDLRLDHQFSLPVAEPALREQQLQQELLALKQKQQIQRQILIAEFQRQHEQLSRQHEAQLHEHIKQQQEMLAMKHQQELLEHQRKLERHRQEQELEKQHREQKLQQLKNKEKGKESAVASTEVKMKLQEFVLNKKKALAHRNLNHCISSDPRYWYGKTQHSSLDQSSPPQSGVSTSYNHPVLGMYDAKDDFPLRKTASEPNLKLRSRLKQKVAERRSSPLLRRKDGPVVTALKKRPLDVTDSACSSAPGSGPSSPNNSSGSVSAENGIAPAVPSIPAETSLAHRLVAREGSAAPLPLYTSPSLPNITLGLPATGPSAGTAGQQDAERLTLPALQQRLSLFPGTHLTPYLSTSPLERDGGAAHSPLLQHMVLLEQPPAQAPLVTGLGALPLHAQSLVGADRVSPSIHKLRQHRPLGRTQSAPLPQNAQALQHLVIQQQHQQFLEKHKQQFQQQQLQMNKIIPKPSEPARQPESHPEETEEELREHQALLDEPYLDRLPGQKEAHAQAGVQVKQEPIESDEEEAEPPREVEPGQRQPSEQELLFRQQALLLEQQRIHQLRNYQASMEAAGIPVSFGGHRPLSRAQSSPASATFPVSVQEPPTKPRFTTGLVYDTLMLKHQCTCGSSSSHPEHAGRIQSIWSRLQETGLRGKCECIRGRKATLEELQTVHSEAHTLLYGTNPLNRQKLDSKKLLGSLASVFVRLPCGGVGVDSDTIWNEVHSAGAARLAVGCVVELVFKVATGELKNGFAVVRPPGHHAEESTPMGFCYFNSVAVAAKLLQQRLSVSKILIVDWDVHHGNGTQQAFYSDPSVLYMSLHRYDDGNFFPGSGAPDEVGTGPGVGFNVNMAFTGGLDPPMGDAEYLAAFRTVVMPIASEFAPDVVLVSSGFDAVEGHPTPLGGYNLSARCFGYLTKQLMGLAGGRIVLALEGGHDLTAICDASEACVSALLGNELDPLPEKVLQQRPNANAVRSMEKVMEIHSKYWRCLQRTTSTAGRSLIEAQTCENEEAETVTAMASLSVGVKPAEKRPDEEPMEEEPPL

| Compound | IC50 [1] | IC50 [2] | IC50 [3] | IC50 [4] |
| --- | --- | --- | --- | --- |
| O=C(NO)c1ccc(CN2c3ccccc3Oc3ccccc32)cc1 [Compound 7a, N-Hydroxy-4-[(10H-phenoxazin-10-yl)methyl]benzamide] | 4.32 ± 0.11 µM | 0.79 ± 0.03 µM | 2.2 ± 0.01 µM | 0.017 ± 0.003 µM |
| NC(=O)c1ccc2c(c1)Oc1ccccc1N2Cc1ccc(C(=O)NO)cc1 [Compound 7e, N-Hydroxy-4-[(3-carbamoyl-10H-phenoxazin-10-yl)methyl]benzamide] | 1.41 ± 0.18 µM | 0.52 ± 0.01 µM | 1.04 ± 0.2 µM | 0.008 µM |
| N#Cc1ccc2c(c1)Oc1ccccc1N2Cc1ccc(C(=O)NO)cc1 [Compound 16, N-Hydroxy-4-[(3-cyano-10H-phenoxazin-10-yl)methyl]benzamide] | 3.23 ± 0.59 µM | 1.22 ± 0.32 µM | 4.08 ± 0.2 µM | 0.02 µM |
| O=C(NO)c1ccc(CN2c3ccccc3Oc3cc(Br)ccc32)cc1 [Compound 18, N-Hydroxy-4-[(3-bromo-10H-phenoxazin-10-yl)methyl]benzamide] | 3.18 ± 0.33 µM | 1.75 ± 0.01 µM | 1.56 ± 0.19 µM | 0.015 µM |
| O=C(NO)c1ccc(CN2c3ccccc3Oc3cc(-c4ccccc4)ccc32)cc1 [Compound 20, N-Hydroxy-4-[(3-phenyl-10H-phenoxazin-10-yl)methyl]benzamide] | 8.06 ± 0.21 µM | 5.12 ± 0.02 µM | 6.32 ± 2.06 µM | 0.023 ± 0.003 µM |

Second part, the compound after the results:

| IC50 [1] | IC50 [2] | IC50 [3] | IC50 [4] | Compound |
| --- | --- | --- | --- | --- |
| 3.66 ± 0.22 µM | 2.26 ± 0.01 µM | 3.49 ± 0.7 µM | 0.046 ± 0.002 µM | O=C(NO)c1ccc(CN2c3ccccc3Oc3ccc(C(=O)Nc4ccccc4)cc32)cc1 [Compound 12b, N-Hydroxy-4-[(2-phenylcarbamoylphenoxazin-10-yl)methyl]benzamide] |
| 2.07 ± 0.14 µM | 0.46 ± 0.02 µM | 15.2 ± 0.5 µM | 0.0748 ± 0.002 µM | O=C(NO)c1ccc(CN2c3ccccc3Oc3cc(C(=O)Nc4ccc(C(=O)c5ccccc5)cc4)ccc32)cc1 [Compound 12c, N-Hydroxy-4-{[3–(4-benzoylphenyl)carbamoyl-phenoxazin-10-yl]methyl}benzamide] |
| 2.94 ± 0.52 µM | 1.58 ± 0.3 µM | 3.64 ± 0.06 µM | 0.0431 ± 0.003 µM | O=C(NO)c1ccc(CN2c3ccccc3Oc3cc(C(=O)Nc4ccccc4)ccc32)cc1 [Compound 12d, N-Hydroxy-4-[(3-phenylcarbamoylphenoxazin-10-yl)methyl]benzamide] |
